In patent US20260224561A1, “INHIBITORS OF CYCLIC ADP RIBOSE HYDROLASE AND METHODS OF USE THEREOF” (Flagship Pioneering Innovations VI, LLC, priority 2022, published 2026):

The compounds below were run against T1, Human recombinant CD38 (Homo sapiens, UniProt P28907) (assay: CD38 hydrolase inhibition assay). Conditions: glycohydrolase activity, 0.2 ng/μL CD38, 100 μM ε-NAD substrate, fluorescence excitation 300 nm / emission 410 nm.
T1 construct: purchased BPS Bioscience
T1 sequence (P28907 1-300): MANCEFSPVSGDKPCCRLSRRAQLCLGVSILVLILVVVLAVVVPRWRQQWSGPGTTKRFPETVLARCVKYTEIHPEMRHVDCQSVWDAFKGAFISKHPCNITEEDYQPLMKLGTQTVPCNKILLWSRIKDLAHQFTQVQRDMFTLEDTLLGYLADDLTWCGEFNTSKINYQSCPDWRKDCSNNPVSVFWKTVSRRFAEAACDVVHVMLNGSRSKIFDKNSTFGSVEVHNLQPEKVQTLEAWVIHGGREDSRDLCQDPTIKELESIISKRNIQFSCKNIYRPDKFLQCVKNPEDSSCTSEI
Type: biochemical
Protocol: Example 22: CD38 Hydrolase Inhibition Assay
The CD38 hydrolase inhibition assay measures the glycohydrolase activity of CD38, using an NAD analog as substrate and measuring formation of a fluorescent ADP ribose analog. A 4× buffer was prepared with 1M sucrose and 160 mM Tris-HCl at pH 7.4, for a final assay concentration of 250 mM sucrose and 40 mM Tris-HCl. The 4× solution was kept at 4° C. and warmed to room temperature before use. Tween20 was added to 1× buffer for a final concentration of 0.05%. Human recombinant CD38 (BPS Bioscience) was diluted to 0.4 ng/μL in 1× buffer and 12.5 μL added to each plate well. Inhibitors were added and DMSO content was normalized to the highest concentration on the plate, with an upper limit of 0.5%. Finally, ε-NAD was diluted to 200 μM in 1× buffer and 12.5 μL added to each plate well, for final well concentrations of 0.2 ng/μL CD38 and 100 μM ε-NAD. Plates were covered and incubated at room temperature for […], and then read on a plate reader using excitation 300 nm and emission 410 nm. […] IC50s for test compounds were determined either using GraphPad Prism software v9.3, or CDD Vault.
Work on `COCCOc1cc(C(=O)Nc2ccnc(C(F)(F)F)c2)cc(-c2cncs2)c1` [Compound 116, 3-(2-methoxyethoxy)-5-(1,3-thiazol-5-yl)-N-[2-(trifluoromethyl)pyridin-4-yl]benzamide] yielded an IC50 of under 0.1 µM.
For `COCCOc1cc(C(=O)Nc2ccc3[nH]cnc3c2)cc(-n2ccnc2)c1` [Compound 127, N-(1H-benzo[d]imidazol-6-yl)-3-(1H-imidazol-1-yl)-5-(2-methoxyethoxy)benzamide], the IC50 was under 0.1 µM.
For `COc1cc(C(=O)Nc2ccnc(C(F)(F)F)c2)cc(-n2ccnc2)c1` [Compound 115, 3-(imidazol-1-yl)-5-methoxy-N-[2-(trifluoromethyl)pyridin-4-yl]benzamide], the IC50 was under 0.1 µM.
`COCCOc1cc(C(=O)Nc2ccc3nccnc3c2)cc(-n2ccnc2)c1` [Compound 128, 3-(imidazol-1-yl)-5-(2-methoxyethoxy)-N-(quinoxalin-6-yl) benzamide] was tested, and the IC50 was under 0.1 µM.
For `COCCOc1cc(-n2ccnc2)cc(C(=O)Nc2ccnc(C(F)(F)F)c2)c1F` [Compound 117, 2-fluoro-5-(imidazol-1-yl)-3-(2-methoxyethoxy)-N-[2-(trifluoromethyl)pyridin-4-yl]benzamide], the IC50 was 0.1 to 1 µM.
`COCCOc1cc(C(=O)Nc2ccc3cn[nH]c3c2)cc(-n2ccnc2)c1` [Compound 109, 3-(imidazol-1-yl)-N-(1H-indazol-6-yl)-5-(2-methoxyethoxy) benzamide] showed an IC50 of under 0.1 µM.
`COCCOc1cc(-n2ccnc2)cc(C(=O)Nc2ccnc(C(F)(F)F)c2)c1Cl` [Compound 113] was tested, and the IC50 was over 1 µM.
Work on `CN(C)CCOc1cc(C(=O)Nc2ccnc(C(F)(F)F)c2)cc(-n2ccnc2)c1` [Compound 107, 3-[2-(dimethylamino)ethoxy]-5-(imidazol-1-yl)-N-[2-(trifluoromethyl)pyridin-4-yl]benzamide] yielded an IC50 of under 0.1 µM.
In the case of `COCCOc1cc(C(=O)Nc2cncc(Cl)c2)cc(-n2ccnc2)c1` [Compound 106, N-(5-chloropyridin-3-yl)-3-(imidazol-1-yl)-5-(2-methoxyethoxy) benzamide], the IC50 is reported as under 0.1 µM.
Compound `COCCOc1cc(C(=O)Nc2ccnc(C(F)(F)F)c2)cc(-c2cccnc2)c1` [Compound 120, 3-(2-methoxyethoxy)-5-(pyridin-3-yl)-N-[2-(trifluoromethyl)pyridin-4-yl]benzamide] has an IC50 of over 1 µM.
`COCCOc1cc(C(=O)Nc2ccc(F)c(Cl)c2)cc(-n2ccnc2)c1` [Compound 111, N-(3-chloro-4-fluorophenyl)-3-(imidazol-1-yl)-5-(2-methoxyethoxy)benzamide] gave an IC50 of under 0.1 µM.
`COCCOc1cc(C(=O)Nc2ccnc(C(F)(F)F)c2)cc(-n2cncc2CO)c1` [Compound 118] was tested, and the IC50 was 0.1 to 1 µM.
`COCCOc1cc(C(=O)Nc2ccc3[nH]ncc3c2)cc(-n2ccnc2)c1` [Compound 126, 3-(imidazol-1-yl)-N-(1H-indazol-5-yl)-5-(2-methoxyethoxy) benzamide] gave an IC50 of under 0.1 µM.
For `COCCOc1cc(C(=O)Nc2ccc(C(F)(F)F)nc2)cc(-n2ccnc2)c1` [Compound 112, 3-(imidazol-1-yl)-5-(2-methoxyethoxy)-N-[6-(trifluoromethyl)pyridin-3-yl]benzamide], the IC50 was under 0.1 µM.
